This passage reports remaining activity results from publication PMC9718554, “Discovery of a fragment hit compound targeting D-Ala:D-Ala ligase of bacterial peptidoglycan biosynthesis” (Journal of Enzyme Inhibition and Medicinal Chemistry, 2022).

The target in the first experiment is T1, E. coli DdlB enzyme (D-alanine:D-alanine ligase) (Escherichia coli, UniProt P07862).
T1 construct: made in house; host or cells: E. coli
The experiment in a line: biochemical. As to conditions: at 0.5 mM; read-out: DdlB inhibition, RA (Residual Activity).
In the case of `N/C(=N\O)c1cnn2c(-c3cccc(C(F)(F)F)c3)ccnc12` [Compound 23, (Z)-N'-Hydroxy-7–(3-(trifluoromethyl)phenyl)pyrazolo[1,5-a]pyrimidine-3-carboximidamide], the remaining activity at 500 µM is 94%.

Staying with this experiment, now noted: fragment library screening; tested concentration 1.8 mM; read-out: DdlB RA.
On to `O=C(O)C1CCN(c2ccc(C(F)(F)F)cn2)CC1` [FF30-0262], for which the remaining activity at 1800 µM was 92%.

In the case of `Cc1cccc(C)c1NC(=O)C[C@H](NCCO)C(=O)O` [Compound 4553-3784], the remaining activity at 1800 µM amounted to 102%.

Staying with this experiment, now noted: fragment library screening; tested concentration 2.0 mM; read-out: DdlB RA.
Regarding `CCOc1ccc([C@@H](CC(=O)O)NC(C)=O)cc1` [Compound 6705-0233], the remaining activity at 2000 µM worked out at 87%.

`Cc1ccc2c(c1)CCCN2C(=O)CCC(=O)O` [Compound Y206-3286]: the remaining activity at 2000 µM turned out to be 90%.

The same experiment, now with this note: residual activity of DdlB, fragment library screening, tested concentration 3.0 mM; read-out: DdlB RA.
`CC(C)n1ncc(C(N)=O)c1N` [Compound 8014-2120]: the remaining activity at 3000 µM is 92%.

The experiment is the same for the next values; noted with them: residual activity of DdlB, fragment library screening, tested concentration 3.3 mM; read-out: DdlB RA.
Regarding `CCn1cnnc1CC1CCNC1` (stereo not drawn) [Compound P936-0678], the remaining activity at 3300 µM is 90%.

Staying with this experiment, now noted: residual activity of DdlB, fragment library screening, tested concentration 3.4 mM; read-out: DdlB RA.
As to `CCc1c(C)nn2cnnc2c1O` [Compound 8010-0007], the remaining activity at 3400 µM was found to be 97%.

Consider `CC1CN(c2ccccc2)NC1=O` (stereo not drawn) [Compound 8009-3796], for which the remaining activity at 3400 µM stood at 97%.

Staying with this experiment, now noted: residual activity of DdlB; fragment library screening; tested concentration 2.5 mM; read-out: DdlB RA.
For the compound `CC(=O)Nc1ccccc1C(=O)O` [FLD129], the remaining activity at 2500 µM was found to be 98%.

As for `Cc1ccc(C#N)c(O)n1` [FLD051], the remaining activity at 2500 µM was determined as 97%.

As for `COC(=O)c1ccccc1C(=O)O` [FLD006], the remaining activity at 2500 µM worked out at 89%.

With `Cc1nc(-c2ccc(C(=O)O)cc2)cs1` [FLD018], the remaining activity at 2500 µM amounted to 99%.

On to `CC1=NCCS1` [FLD187], for which the remaining activity at 2500 µM was found to be 100%.

Turning to `O=C(O)c1cc2ccccc2oc1=O` [FLD109], the remaining activity at 2500 µM is 96%.

On to `CCOC(=O)Cc1ccccn1` [FLD164], for which the remaining activity at 2500 µM was found to be 97%.

For `S=c1[nH]ncs1` [FLD079], the remaining activity at 2500 µM is 81%.

As to `Nc1cc(F)c(F)cc1C(=O)O` [FLD047], the remaining activity at 2500 µM was 92%.

In the case of `Oc1c(F)c(F)c(F)c(F)c1F` [FLD172], the remaining activity at 2500 µM was 92%.

With `O=C(O)C(c1ccccc1)c1ccccc1` [FLD066], the remaining activity at 2500 µM stood at 100%.

On to `O=C1CNCCN1` [FLD058], for which the remaining activity at 2500 µM was found to be 100%.

As for `NC(=O)Nc1ccccc1` [FLD016], the remaining activity at 2500 µM came out at 99%.

Turning to `Cc1ncc(CO)c(CO)c1O` [FLD194], the remaining activity at 2500 µM was determined as 99%.

In the case of `CC(O)c1ccccc1` (stereo not drawn) [FLD168], the remaining activity at 2500 µM was determined as 98%.

For the compound `Cc1cc(N)[nH]n1` [FLD153], the remaining activity at 2500 µM was found to be 98%.

Regarding `Cc1nnc(N)s1` [FLD150], the remaining activity at 2500 µM is 95%.

The experiment is the same for the next values; noted with them: residual activity; tested concentration 1.8 mM; read-out: DdlB RA.
Regarding `O=C(C1CCC1)N1CCC(F)(C(=O)N2CCCC2)CC1` [Compound T502-1244], the remaining activity at 1800 µM was determined as 97%.

As for `O=S(=O)(c1cccnc1)N1CCC2(CCC2O)CC1` (stereo not drawn) [Compound S971-1046], the remaining activity at 1800 µM was determined as 89%.

Still in this experiment, the particulars now being: residual activity; tested concentration 1.9 mM; read-out: DdlB RA.
In the case of `Cc1nnc(C2CCN(C(=O)c3ccco3)CC2)[nH]1` [Compound T630-1922], the remaining activity at 1900 µM is 58%.

Consider `O=C(O)c1[nH]c2ccc(F)cc2c1Br` [Compound 8020-2406], for which the remaining activity at 1900 µM stood at 89%.

The experiment is the same for the next values; noted with them: residual activity; tested concentration 2.0 mM; read-out: DdlB RA.
As to `COc1ccccc1Nc1ncccc1C(=O)O` [Compound 8019-5848], the remaining activity at 2000 µM was 99%.

For the compound `CC(C)(C)c1cc(C(=O)O)nn1-c1ccccc1` [Compound 8012-7831], the remaining activity at 2000 µM stood at 102%.

The same experiment, now with this note: residual activity; tested concentration 2.1 mM; read-out: DdlB RA.
On to `Cc1cc(C)cc(NC(=O)N(C)CC2CCOC2)c1` (stereo not drawn) [Compound S213-1693], for which the remaining activity at 2100 µM amounted to 96%.

Consider `O=C1C[C@H]2CN(S(=O)(=O)c3ccccc3)C[C@H]2CN1` [SB76-0562], for which the remaining activity at 2100 µM came to 86%.

For the compound `Cc1noc(C)c1S(=O)(=O)N1CC(n2ccnc2)C1` [Compound S695-2555], the remaining activity at 2100 µM was found to be 97%.

Consider `O=C(Nc1ccccc1C(=O)O)c1ccccc1` [Compound 0090-0118], for which the remaining activity at 2100 µM was 101%.

Regarding `O=C(O)C1CCCCN1S(=O)(=O)c1ccc(F)cc1` (stereo not drawn) [Compound C155-0476], the remaining activity at 2100 µM was found to be 90%.

The experiment is the same for the next values; noted with them: residual activity; tested concentration 2.2 mM; read-out: DdlB RA.
Consider `CCC(C)(C)NC(=O)C1CC(=O)N(c2ccccc2)C1` (stereo not drawn) [Compound Y031-3748], for which the remaining activity at 2200 µM amounted to 101%.

For `Cn1cnc(S(=O)(=O)NC2CCCCCCC2)c1` [Compound G404-0427], the remaining activity at 2200 µM stood at 91%.

Staying with this experiment, now noted: residual activity; tested concentration 2.3 mM; read-out: DdlB RA.
Turning to `CC1Cc2ccc(CN)cc2N1C(=O)c1ccccc1` (stereo not drawn) [FF01-3167], the remaining activity at 2300 µM worked out at 51%.

With `CCn1cc(Br)c(C(=O)O)n1` [Compound Y501-6363], the remaining activity at 2300 µM worked out at 90%.

With `Cn1nnc(-c2ccc(C(=O)O)c(N)c2)n1` [Compound 8019-8673], the remaining activity at 2300 µM stood at 115%.

Still in this experiment, the particulars now being: tested concentration 1.7 mM; read-out: DdlB RA.
Consider `COc1ccc(OC)c(-c2oc3ccccc3c(=O)c2O)c1` [Compound 6877-0609], for which the remaining activity at 1700 µM is 102%.

Consider `Cc1ccc(S(N)(=O)=O)cc1NC(=O)c1cccnc1` [Compound Y202-7310], for which the remaining activity at 1700 µM was 100%.

On to `NS(=O)(=O)c1ccc(CNC(=O)c2ccncc2)cc1` [Compound Y205-1594], for which the remaining activity at 1700 µM is 102%.

On to `O=C(COc1cccc(Br)c1)Nc1nnc[nH]1` [Compound 4491-0732], for which the remaining activity at 1700 µM amounted to 94%.

On to `Cc1cccc(C2SC(C)C(=O)N2CC(=O)N(C)C)c1` (stereo not drawn) [Compound V017-7801], for which the remaining activity at 1700 µM came to 98%.

`O=S(=O)(c1c[nH]c2ncccc12)N1CCc2ccccc21` [Compound P633-0115]: the remaining activity at 1700 µM was 83%.

For `CCCNc1c(N2CCCC(C(=O)OCC)C2)c(=O)c1=O` (stereo not drawn) [Compound C738-0118], the remaining activity at 1700 µM amounted to 108%.

Still in this experiment, the particulars now being: tested concentration 1.8 mM; read-out: DdlB RA.
For the compound `NS(=O)(=O)c1ccc(CNC(=O)C2CCCO2)cc1` (stereo not drawn) [Compound Y030-8649], the remaining activity at 1800 µM amounted to 97%.

For `O=c1[nH]c2cc(S(=O)(=O)N3CCCCC3)ccc2o1` [Compound 8013-5568], the remaining activity at 1800 µM is 103%.

The experiment is the same for the next values; noted with them: tested concentration 1.9 mM; read-out: DdlB RA.
As for `Cc1c(-c2cc(C(=O)O)n3nccc3n2)cnn1C` [Compound Y504-7677], the remaining activity at 1900 µM is 86%.

As for `COc1ccccc1Cc1noc([C@H]2CCCN2)n1` [FF20-0278], the remaining activity at 1900 µM is 87%.

For the compound `Cc1ccc(Nc2ncccc2S(N)(=O)=O)cc1` [Compound M784-3115], the remaining activity at 1900 µM is 85%.

For `CCc1cc(C2CCCN2S(=O)(=O)CC)on1` (stereo not drawn) [Compound J005-1008], the remaining activity at 1900 µM stood at 98%.

As to `O=C(NCc1ccccc1)C1(F)CCNC1` (stereo not drawn) [SA94-0001], the remaining activity at 1900 µM worked out at 97%.

Take `CC(=O)N1C(C(=O)O)CSC1c1ccc(C)cc1` (stereo not drawn) [Compound C796-0200]: the remaining activity at 1900 µM stood at 90%.

As for `CC1SC(c2ccc(Cl)c(Cl)c2)NC1=O` (stereo not drawn) [Compound 8011-7610], the remaining activity at 1900 µM stood at 80%.

Regarding `COCC1CN(C(C)=O)CC12CCNCC2` (stereo not drawn) [Compound S635-3083], the remaining activity at 1900 µM is 93%.

The same experiment, now with this note: tested concentration 2.0 mM; read-out: DdlB RA.
For the compound `O=C(O)CCC(=O)NC1C2CC3CC(C2)CC1C3` (stereo not drawn) [Compound Y206-2966], the remaining activity at 2000 µM is 90%.

As to `OB(O)c1ccc(OCc2ccccc2)c(F)c1` [Compound 1222-0119], the remaining activity at 2000 µM is 98%.

The experiment is the same for the next values; noted with them: tested concentration 2.2 mM; read-out: DdlB RA.
Regarding `CCOC1CN=C2C(C#N)=CC=CN21` (stereo not drawn) [Compound Y600-6204], the remaining activity at 2200 µM is 92%.

On to `CC(=O)N1CC(c2nc(C)no2)C2(CNC2)C1` (stereo not drawn) [SB57-1191], for which the remaining activity at 2200 µM stood at 69%.

As to `Cc1ccc2ccc(S(=O)(=O)O)cc2c1` [Compound 1326-0466], the remaining activity at 2200 µM amounted to 101%.

The same experiment, now with this note: tested concentration 2.3 mM; read-out: DdlB RA.
As to `CCOc1ccc(S(N)(=O)=O)cc1C` [Compound Y050-1019], the remaining activity at 2300 µM is 79%.

In the case of `CCS(=O)(=O)N1CCCC1c1ccccc1F` (stereo not drawn) [Compound D399-0515], the remaining activity at 2300 µM was 95%.

As for `Cc1ccc(C(C)C)cc1S(=O)(=O)O` [Compound 8020-8310], the remaining activity at 2300 µM stood at 91%.

In the case of `O=C(O)CCCC1C(=O)Nc2ccccc21` (stereo not drawn) [Compound 8020-0144], the remaining activity at 2300 µM came to 93%.

On to `CC(O)C1CCN(Cc2ccncc2)CC1` (stereo not drawn) [Compound T786-0016], for which the remaining activity at 2300 µM worked out at 65%.

Still in this experiment, the particulars now being: tested concentration 2.5 mM; read-out: DdlB RA.
Regarding `Nc1n[nH]c(-c2ccccc2C(=O)O)n1` [Compound 8020-6003], the remaining activity at 2500 µM was found to be 98%.

For `CC(C)Oc1c(OC(C)C)c(=O)c1=O` [FF20-3460], the remaining activity at 2500 µM was 72%.

As for `Nc1ccc2ncc(C(=O)O)c(O)c2c1` [Compound 8020-1815], the remaining activity at 2500 µM turned out to be 42%.

Staying with this experiment, now noted: tested concentration 2.6 mM; read-out: DdlB RA.
As to `O=c1c(O)c(NCc2ccco2)c1=O` [Compound G317-0464], the remaining activity at 2600 µM worked out at 89%.

With `O=C(Cc1ccccc1)NCC1CCOCC1` [Compound P970-0162], the remaining activity at 2600 µM was determined as 92%.

For `Cc1cc(Nc2c(O)c(=O)c2=O)no1` [Compound G317-0569], the remaining activity at 2600 µM was found to be 93%.

Still in this experiment, the particulars now being: tested concentration 2.8 mM; read-out: DdlB RA.
Turning to `Cc1nc(N(C)C)ncc1C(=O)O` [Compound C430-1216], the remaining activity at 2800 µM was determined as 88%.

Still in this experiment, the particulars now being: tested concentration 2.9 mM; read-out: DdlB RA.
`CC(C)(C(=O)O)C1CCOCC1` [Compound S424-0502]: the remaining activity at 2900 µM was 98%.

Still in this experiment, the particulars now being: tested concentration 3.5 mM; read-out: DdlB RA.
For `O=C(O)c1cc(CO)on1` [Compound 8018-8667], the remaining activity at 3500 µM turned out to be 99%.
